Data published in PubChem BioAssay (NCI).
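Values below derive from 48-hour exposures of cells grown in 96-well plates, with endpoints linearly interpolated between the two concentrations bracketing the appropriate inhibition level. Here, GI50 denotes the concentration required for 50% inhibition of growth. The concentration for full growth arrest is given as TGI.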

How the values were obtained:
Experiment in all cases: NCI tumour cell line growth inhibition, 48 h
[1] = system: SNB-78 CNS
[2] = system: XF 498 CNS
[3] = system: KM20L2 colon
[4] = system: DMS 273 small cell lung
[5] = system: HOP-18 NSCLC
[6] = system: MDA-N
[7] = system: SN12K1 renal
[8] = system: P388 leukemia
[9] = system: P388/ADR leukemia
[10] = system: RXF-631 renal

Compound | TGI [1] [µM] | TGI [2] [µM] | TGI [3] [µM] | TGI [4] [µM] | TGI [5] [µM] | TGI [6] | TGI [7] [µM] | TGI [8] [µM] | TGI [9] [µM] | TGI [10] [µM] | GI50 [6]
COc1cccc(/C=N\NC(=O)C(C)SC(C)C(=O)N/N=C/c2cccc(OC)c2)c1 (stereo unspecified) | > 100 | > 100 | > 100 | 97 |  |  |  |  |  |  | 
C[C@H]1CC[P+](C)(c2ccccc2)C1 (stereo partly specified) | > 100 |  | > 100 | > 100 | > 100 |  |  |  |  |  | 
CC1OC(OC2C(O)C(O)C(O)C(O)C2O)C(N)CC1N=C(N)C(=O)O (stereo unspecified) |  |  |  |  |  | > 100 µM |  |  |  |  | 
NCCCN=c1ccc2c3c1c(O)c1c(O)ccc(=O)c1c3[nH]n2CCNCCO | 4.15 | 6.05 | 38.4 | 0.403 | 17.8 | 8.37 µM | 16.3 | 6.13 | 100 |  | 
Cc1nc2ccccc2c(=O)n1/N=C(\N=Nc1cc(Cl)ccc1Cl)c1ccccc1 |  | > 100 | 4.47 | > 100 | 44.9 |  |  |  |  |  | 
COc1cc2c3cc1Oc1c(OC)c(OC)cc4c1C(Cc1ccc(O)c(c1)Oc1ccc(cc1)CC3N(C)CC2)N(C)CC4 (stereo unspecified) |  |  |  |  |  | 60 µM |  |  |  |  | 
Cc1cc(Cl)ccc1NC(=O)C1C(=O)N(c2ccc(Cl)cc2C)C(=O)/C1=N\NC(N)=S (stereo unspecified) | > 100 |  | 46.8 | > 100 | 60.8 |  |  |  |  | > 100 | 
Cc1ccc2ccc(-c3ccccc3)c3c2c1C(=O)c1ccccc1C3=O | > 100 | 99.1 | > 100 | > 100 | > 100 |  |  |  |  |  | 
N#CCc1cccc(CC#N)c1Br | > 100 | > 100 | > 100 | > 100 |  |  |  |  |  |  | 
OCCN(CO)CO |  |  |  |  |  | > 100 µM |  |  |  |  | 
COc1ccccc1NC(=O)C1=C(C)NC(C)=C(C(=O)Nc2ccccc2OC)C1c1ccco1 | > 100 | > 100 | 13 | > 100 | 73.9 | > 100 µM |  |  |  | > 92.6 | 
OCC(O)C(O)C(O)c1nn(-c2ccc(F)cc2)c2nc3cc(Cl)c(Cl)cc3nc12 (stereo unspecified) | 27.4 | 24.6 | > 100 | 48.2 | 52.7 |  |  |  |  |  | 
O=C1CCC(=O)N1Sc1ccccc1 | > 100 |  | > 100 | > 100 |  |  |  |  |  | > 100 | 
COc1cc2c(c(OC)c1OC)C(=O)NCCC2 | > 100 | > 100 | > 100 | > 100 | > 100 |  | > 100 | > 100 | > 100 |  | 
CC(=O)OCC1OC(n2c3c(cc(C#N)c2=S)CCCC3)C(OC(C)=O)C(OC(C)=O)C1OC(C)=O (stereo unspecified) |  |  |  |  |  | > 100 µM |  |  |  |  | 
Clc1ccc(CN2CCCN(Cc3ccc(Cl)cc3)C2c2cc3ccccc3c3ccccc23)cc1 |  |  |  |  |  | > 100 µM |  |  |  |  | 

Compound | TGI [1] [µM] | TGI [2] [µM] | TGI [3] [µM] | TGI [4] [µM] | TGI [5] [µM] | TGI [6] | TGI [7] [µM] | TGI [8] [µM] | TGI [9] [µM] | TGI [10] [µM] | GI50 [6]
O=C(O)CCCCC1CCSS1 (stereo unspecified) |  |  |  |  |  | > 100 µM |  |  |  |  | 
C1=CC2CCC1CN2CCC1CNc2ccccc21 (stereo unspecified) | > 100 | > 100 | > 100 | > 100 | > 100 |  |  |  |  |  | 
O=C1OC(=O)C([Se]c2ccccc2)=C1[Se]c1ccccc1 | > 100 |  | > 100 |  | > 100 |  |  |  |  | > 100 | 
CCCCC1(C(NC(=O)c2ccccc2Cl)c2ccncc2)C(=O)N(c2ccccc2)N(c2ccccc2)C1=O (stereo unspecified) | > 100 | > 100 | > 100 | > 100 | > 100 |  |  |  |  |  | 
O=c1[nH]cnc2n[nH]nc12 | 56.7 | 83.5 | > 100 | > 100 | > 100 |  |  |  |  |  | 
N#[N+]c1ccc(Nc2ccccc2)cc1 |  |  |  |  |  | > 50 µg/mL |  |  |  |  | > 50 µg/mL
CCCCCC[C@H]1C(=O)O[C@H](C)[C@H](NC(=O)c2cccc(NC=O)c2OC)C(=O)O[C@@H](C)[C@@H]1OC(=O)CCC (tested in a mixture with another compound) |  |  |  |  |  | 45.2 µM |  |  |  |  | 11.1 µM
COc1ccccc1C(=O)N(Cc1ccccc1)c1ccc(Cl)c(C(=O)OC(C)C)c1 | 78 | 43.4 | > 100 | 37.5 | 56.3 | > 100 µM |  |  |  | > 100 | 
Cc1ccc(OC(=O)N2C/C(=C\c3ccccc3)C(=O)/C(=C/c3ccccc3)C2)cc1 | 82.3 | 49.1 | > 100 | 18.1 | > 91.2 | 15.3 µM |  |  |  | > 100 | 
CNC(=O)OCc1nc(SC)n(C)c1COC(=O)NC | 359 | 446 | 482 | 251 | 491 | 310 µM | 250 | 331 | 611 |  | 
O=C1C(=O)C2(CC1S(=O)(=O)c1ccccc1)c1ccccc1-c1ccccc12 (stereo unspecified) | 45.6 |  | > 100 | 36.2 | > 10 |  |  |  |  |  | 
Cc1ccc(S(=O)C(C)C(Cl)c2ccccc2)cc1 (stereo unspecified) | > 100 |  | > 100 | > 100 | > 100 |  |  |  |  |  | 
COc1ccc(/C=N/NS(=O)(=O)c2ccccc2)cc1 | > 100 | > 100 | > 100 | > 100 | > 100 |  |  |  |  |  | 
Cn1c(=O)c2c(nc(N/N=C/c3ccccc3C(=O)O)n2C)n(C)c1=O |  |  |  |  |  | > 100 µM |  |  |  |  | 
COc1ccc(Br)c(C(=O)N2CCc3ccccc32)c1N | > 100 | > 100 | > 100 | 99.3 | > 100 |  |  |  |  |  | 
O=C(O)c1ccccc1NCn1c(=S)sc2ccccc21 |  |  |  |  |  | > 100 µM |  |  |  |  | 
